The source of these data is patent publication US11884673B2, “Modulators of ion channel receptors and uses thereof” (BIONOMICS LIMITED, priority 2018, dated 2024).

Molecules are shown by their SMILES.

The target in one test is T1, hNav1.7 (Homo sapiens, UniProt Q15858).
T1 construct: expressed in transfected cells
T1 sequence (Q15858 whole entry): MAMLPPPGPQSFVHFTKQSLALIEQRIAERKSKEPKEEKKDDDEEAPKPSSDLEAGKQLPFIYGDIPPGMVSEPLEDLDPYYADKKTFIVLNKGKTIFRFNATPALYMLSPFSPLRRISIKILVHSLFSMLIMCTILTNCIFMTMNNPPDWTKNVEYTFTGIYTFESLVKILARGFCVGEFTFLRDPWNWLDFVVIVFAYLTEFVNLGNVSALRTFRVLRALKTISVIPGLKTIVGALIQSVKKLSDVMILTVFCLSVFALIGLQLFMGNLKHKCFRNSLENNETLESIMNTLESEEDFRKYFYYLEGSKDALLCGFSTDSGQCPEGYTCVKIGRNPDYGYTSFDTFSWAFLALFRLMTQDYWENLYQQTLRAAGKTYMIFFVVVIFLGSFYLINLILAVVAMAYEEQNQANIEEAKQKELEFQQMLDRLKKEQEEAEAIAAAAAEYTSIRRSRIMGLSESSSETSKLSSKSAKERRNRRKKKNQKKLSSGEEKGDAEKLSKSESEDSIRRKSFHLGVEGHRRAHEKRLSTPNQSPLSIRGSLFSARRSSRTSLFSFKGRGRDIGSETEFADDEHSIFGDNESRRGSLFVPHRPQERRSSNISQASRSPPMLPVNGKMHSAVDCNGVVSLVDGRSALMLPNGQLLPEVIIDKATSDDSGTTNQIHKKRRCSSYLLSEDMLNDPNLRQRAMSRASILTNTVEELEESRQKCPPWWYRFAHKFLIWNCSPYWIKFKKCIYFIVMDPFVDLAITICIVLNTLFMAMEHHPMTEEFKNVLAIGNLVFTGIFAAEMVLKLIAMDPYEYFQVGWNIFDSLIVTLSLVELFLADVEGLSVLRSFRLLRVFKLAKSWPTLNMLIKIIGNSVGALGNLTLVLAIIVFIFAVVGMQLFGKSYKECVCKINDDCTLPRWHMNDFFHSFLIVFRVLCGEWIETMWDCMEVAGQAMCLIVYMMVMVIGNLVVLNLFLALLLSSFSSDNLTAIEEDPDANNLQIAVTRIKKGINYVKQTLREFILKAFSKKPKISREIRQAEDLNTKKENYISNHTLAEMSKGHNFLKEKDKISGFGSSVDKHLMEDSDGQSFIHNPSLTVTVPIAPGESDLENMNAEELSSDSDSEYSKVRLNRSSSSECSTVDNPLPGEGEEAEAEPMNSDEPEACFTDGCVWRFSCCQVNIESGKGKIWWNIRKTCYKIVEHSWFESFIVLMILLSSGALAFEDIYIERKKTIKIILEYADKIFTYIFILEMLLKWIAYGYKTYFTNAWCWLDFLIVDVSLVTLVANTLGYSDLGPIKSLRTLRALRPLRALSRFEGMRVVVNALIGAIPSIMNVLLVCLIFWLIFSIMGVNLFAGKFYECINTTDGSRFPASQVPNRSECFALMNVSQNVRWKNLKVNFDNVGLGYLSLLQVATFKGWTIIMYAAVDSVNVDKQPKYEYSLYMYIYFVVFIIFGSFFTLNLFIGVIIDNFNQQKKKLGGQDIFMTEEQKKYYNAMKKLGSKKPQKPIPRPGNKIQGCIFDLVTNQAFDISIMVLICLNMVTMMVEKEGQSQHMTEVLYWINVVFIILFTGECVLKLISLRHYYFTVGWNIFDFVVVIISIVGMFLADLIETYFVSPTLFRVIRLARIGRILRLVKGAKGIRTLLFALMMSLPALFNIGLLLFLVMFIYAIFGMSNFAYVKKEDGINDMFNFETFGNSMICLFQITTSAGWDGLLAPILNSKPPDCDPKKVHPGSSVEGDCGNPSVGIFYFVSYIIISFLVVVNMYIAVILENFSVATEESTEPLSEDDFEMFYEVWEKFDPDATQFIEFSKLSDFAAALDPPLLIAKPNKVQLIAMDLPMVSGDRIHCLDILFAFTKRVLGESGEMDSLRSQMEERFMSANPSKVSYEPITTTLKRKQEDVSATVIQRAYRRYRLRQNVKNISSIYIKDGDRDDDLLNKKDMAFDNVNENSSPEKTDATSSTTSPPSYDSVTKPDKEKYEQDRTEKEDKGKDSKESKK
Briefly: hNav1.7 inactivated state (SIS) automated patch clamp electrophysiology (Patchliner, whole-cell). In kind it is cell-based. To be noted: Assay Conc. 10 uM; inactivated state protocol; hNav1.7 stably expressed in human embryonic kidney cells; read-out: hNav1.7 SIS (% inh). The procedure: hNav1.7, hNav1.2, hNav1.3, hNav1.4, hNav1.5, hNav1.6 were stably expressed in human embryonic kidney cells and kept under constant antibiotic selection. For in vitro assays, cells were maintained in appropriate growth medium at 37° C. and 5% CO2 in a humidified incubator.
Nav1.x expressing cells plated in T-25 flasks for 2-3 days prior to use and grown to 70-85% confluence were briefly trypsinized to obtain a single cell suspension of ˜2-3×10^6 cells/ml. All electrophysiological recordings were performed at ambient temperature (21-23° C.) using automated patch clamp (Patchliner, Nanion Technologies GmbH) in the whole-cell configuration using the following solutions: Internal solution contained (in mM): CsCl (50), NaCl (10), CsF (60), EGTA (20), HEPES (10), pH 7.2 KOH, 285 mOsmol·Kg^−1. External (bath) solution contained (in mM): NaCl (140), KCl (4), MgCl2 (1), CaCl2) (2) D-Glucose monohydrate (5), HEPES (10), pH 7.4 NaOH, 298 mOsmol·kg^−1.
The following voltage protocols were used to assess different Nav1.x channel states:
For each Nav1.x channel, a steady state inactivation curve was obtained in order to calculate the voltage resulting in 50% channel inactivation (V0.5inact). A 2 pulse protocol was then employed in which cells held at a voltage corresponding to 20 mV more negative to V0.5 inact were depolarised to −10 mV for 20 ms before returning to the previous holding voltage. This test pulse constituted P1 and represents 100% available (non-inactivated) Nav1.x channels. The same cell was then depolarised for 8 s to a voltage corresponding to 7 mV more positive than V0.5inact in order to cause channel inactivation. Following a brief (2 ms) hyperpolarising voltage step to −120 mV (to reset the activation gate), cells were again subjected to a depolarising test pulse (P2) to −10 mV for 20 ms before returning to the holding potential. Each sequence was repeated 6× at 30 s intervals. Using this protocol, control P2 current amplitudes (representing the % channels available following 8 s inactivation) was ˜50% of control P1 current amplitude. 6 repetitions of this recording sequence were made in the control bath solution and then again 2 minutes after compound addition and thereafter at increasing compound concentrations. % inhibition was calculated by (1−(P2drug at repetition 6/P2control at repetition 6))*100. Data were either presented as % block by a single concentration of drug or an estimated eIC50 determined from 2-3 drug concentrations which was determined by fitting data with a sigmoidal dose response curve (variable slope) using GraphPad Prism software (Version 6.0).
All compounds were dissolved in DMSO to 20 mM initially. Subsequent dilutions in DMSO were made to achieve 200× final bath concentrations. DMSO compound stocks were finally diluted 1/200 in bath solution just prior to assay resulting in a final DMSO concentration of 0.5% which was not found to affect control current amplitude.
In general terms: The patch-clamp technique gives a direct electrical read-out from membranes.
For the compound `CC(C)(NC(=O)c1ccn2ccnc2c1)c1cccc(OCc2ccccc2F)c1` [Number 11], the inhibition at 10 µM was found to be 45%.
With `O=C(NCc1cc(OCc2ccccc2F)ccc1F)c1nccn2ccnc12` [Number 48], the inhibition at 10 µM came out at 100%.
On to `O=C(NCc1cc(OCc2ccccc2F)ccc1F)c1cccc2nncn12` [Number 49], for which the inhibition at 10 µM was determined as 38%.
On the same count and under the same terms, then `O=C(NCc1cccc(OCc2ccccc2F)c1)c1cccc2ccnn12` [Number 50], with 80%; and `CC(C)(Oc1cccc(CNC(=O)c2cccn3cnnc23)c1)c1ccccc1F` [Number 51], with 36%.
For `CC(C)(Oc1cccc(CNC(=O)c2cccn3ccnc23)c1)c1ccccc1F` [Number 52], the inhibition at 10 µM was determined as 83%.
Same read-out and setting: then `COC[C@@H](C)N(Cc1cccc(OCc2ccccc2F)c1)C(=O)c1cn2ccccc2n1` [Number 53], with 74%; and `COC[C@H](C)N(Cc1cccc(OCc2ccccc2F)c1)C(=O)c1cn2ccccc2n1` [Number 54], with 55%.
Regarding `Cn1ccc(C(=O)NCc2cc(OCc3ccccc3F)ccc2F)cc1=O` [Number 55], the inhibition at 10 µM came to 49%.
On the same count and under the same terms, next, `Cn1cccc(C(=O)NCc2cccc(OCc3ccccc3F)c2)c1=O` [Number 57]: 53%; `Cn1cccc(C(=O)NCc2cc(OCc3ccccc3F)ccc2F)c1=O` [Number 58]: 52%.
Take `O=C(NCc1cc(OCc2ccccc2F)ccc1F)c1cn2cccnc2n1` [Number 59]: the inhibition at 10 µM turned out to be 42%.
Same read-out and setting: next, `O=C(NCc1cccc(OCc2ccccc2F)c1)c1cccc2cncn12` [Number 60]: 49%; `O=C(NCc1cccc(OCc2ccccc2F)c1)c1cn2ncccc2n1` [Number 62]: 50%.
Regarding `O=C(NCc1cccc(OCc2ccccc2F)c1)c1cn2cccnc2n1` [Number 63], the inhibition at 10 µM was found to be 42%.
Same read-out and setting: next, `O=C(NCc1cccc(OCc2ccccc2F)c1)c1cccc2ncnn12` [Number 64]: 48%; `Cn1ccc(C(=O)NCc2cccc(OCc3ccccc3F)c2)cc1=O` [Number 66]: 30%.
The same measure, in the same setting: then `O=C(NCc1cccc(OCc2ccccc2F)c1)c1cn2ccncc2n1` [Number 67], with 34%; and `O=C(NCc1cc(OCc2ccccc2F)ccc1F)c1cn2ncccc2n1` [Number 68], with 53%; and `O=C(NCc1cccc(OCc2ccccc2F)c1)c1cc2cccn2cn1` [Number 69], with 92%.
On the same count and under the same terms, then `O=C(NCc1cccc(OCc2ccccc2F)c1)c1ccn2cnnc2c1` [Number 70], with 66%.
Take `Cc1cn2ccc(C(=O)NCc3cccc(OCc4ccccc4F)c3)cc2n1` [Number 71]: the inhibition at 10 µM came to 66%.
Still for that read-out and setting: next, `Cc1cn2ccc(C(=O)NCc3cc(OCc4ccccc4F)ccc3F)cc2n1` [Number 72]: 100%; `O=C(NCc1cccc(OCc2ccccc2F)c1)c1cnc2ccccn12` [Number 73]: 47%; `O=C(NCc1cc(OCc2ccccc2F)ccc1F)c1ccn2cnnc2c1` [Number 74]: 58%.
Same read-out and setting: next, `Cn1cc(CC(=O)NCc2cccc(OCc3ccccc3F)c2)c2ccccc21` [Number 75]: 74%; `O=C(Cc1cn2ccccc2n1)NCc1cccc(OCc2ccccc2F)c1` [Number 76]: 44%; `O=C(NCc1cccc(OCc2ccccc2F)c1)c1cccn2ncnc12` [Number 77]: 70%.
With `O=C(NCc1cc(OCc2ccccc2F)ccc1F)c1cccn2ncnc12` [Number 78], the inhibition at 10 µM worked out at 83%.
Same read-out and setting: next, `O=C(NCc1cccc(OCc2ccccc2F)c1)c1cccn2nnnc12` [Number 79]: 42%.
The same measure, in the same setting: then `O=C(NCc1cccc(OCc2ccccc2F)c1)c1ccn2ncnc2c1` [Number 80], with 30%.
On the same count and under the same terms, next, `O=C(NCc1cc(OCc2ccccc2F)ccc1F)c1cccn2nnnc12` [Number 81]: 88%.
As for `O=C(NCc1cc(OCc2ccccc2F)ccc1F)c1ccn2ncnc2c1` [Number 82], the inhibition at 10 µM came out at 42%.
With `Cc1cnc2cc(C(=O)NCc3cccc(OCc4ccccc4F)c3)ccn12` [Number 83], the inhibition at 10 µM stood at 59%.
Take `O=C(NCc1cccc(OCc2ccccc2F)c1)c1ccc2cncn2c1` [Number 84]: the inhibition at 10 µM worked out at 45%.
Same read-out and setting: next, `O=C(NCc1cc(OCc2ccccc2F)ccc1F)c1ccc2cncn2c1` [Number 85]: 55%; `O=C(NCc1cccc(OCc2ccccc2F)c1)c1cccn2cncc12` [Number 86]: 92%.
On the same count and under the same terms, then `O=C(NCc1cc(OCc2ccccc2F)ccc1F)c1cccn2cncc12` [Number 87], with 66%.
The same measure, in the same setting: next, `O=C(NCc1cccc(OCc2ccccc2F)c1)c1ccc2nncn2c1` [Number 88]: 49%; `O=C(NCc1cc(OCc2ccccc2F)ccc1F)c1cccn2ccnc12` [Number 89]: 99%.

Staying with this test, now noted: estimated eIC50 from 2-3 drug concentrations; inactivated state protocol; hNav1.7 stably expressed in human embryonic kidney cells.
For orientation: IC50 means the midpoint of a concentration-inhibition curve. Turning to `O=C(NCc1cc(OCC2CCCCC2)ccc1F)c1ccn2ccnc2c1` [Number 1], the IC50 was 0.41 µM.
Same read-out and setting: then `O=C(NCc1cccc(OCc2ccccc2F)c1)c1nccn2ccnc12` [Number 2], with 1.3 µM.
Still for that read-out and setting: next, `O=C(NCc1cccc(OCc2ccccc2F)c1)c1cccn2ccnc12` [Number 3]: 2.7 µM; `O=C(NCc1cc(OCc2ccccc2F)ccc1F)c1cccn2cnnc12` [Number 4]: 1.1 µM; `O=C(NCc1cc(OCc2ccccc2F)ccc1F)c1ccn2ccnc2c1` [Number 5]: 1.3 µM.
Still for that read-out and setting: then `O=C(NCc1cc(OCC2CCCCC2)ccc1F)c1cccn2cnnc12` [Number 6], with 0.13 µM; and `CC(C)(NC(=O)c1cccn2cnnc12)c1cccc(OCC2CCCCC2)c1` [Number 7], with 4.8 µM.
With `O=C(NCc1cccc(OCC2CCCCC2)c1)c1cccn2cnnc12` [Number 8], the IC50 was 0.91 µM.
On the same count and under the same terms, then `O=C(NCc1cccc(OCc2ccccc2F)c1)c1ccn2ccnc2c1` [Number 9], with 8.9 µM.
The same measure, in the same setting: then `O=C(NCc1cccc(OCc2ccccc2F)c1)c1cccn2cnnc12` [Number 10], with 3.3 µM.
The same measure, in the same setting: then `CC(C)(NC(=O)c1ccn2ccnc2c1)c1cccc(OCC2CCCCC2)c1` [Number 12], with 0.51 µM.
Take `O=C(NCc1cc(OCc2ccccc2F)ccc1F)c1cn2ccccc2n1` [Number 56]: the IC50 is 2.2 µM.
The same measure, in the same setting: next, `CN(Cc1cccc(OCc2ccccc2F)c1)C(=O)c1cn2ccccc2n1` [Number 61]: 1.6 µM.
On the same count and under the same terms, next, `O=C(NCc1cc(OCc2ccccc2F)ccc1F)c1cccc2ncnn12` [Number 65]: 10 µM.
